According to patent US5807854A, “Pyrimidone derivatives with antifungal activity” (J. Uriah & Cia. S.A., priority 1995, dated 1998):
≈ marks a conversion by molar mass, not a printed value.

Tests used:
C. albicans = experiment: In vitro activity by the agar dilution method, C. albicans; type: cell-based; conditions: Candida albicans; Kimmig's agar, 25° C., 48 h; read-out: MIC (minimal inhibitory concentration), C. albicans
Method: (§1) In vitro activity was evaluated against C. albicans, C. krusei, and Aspergillus fumigatus by the agar dilution method. Test strains were either clinical isolates or were obtained from ATCC. Stock solutions containing 800 μg/mL were prepared by solving the test products in 50% ethanol. The culture medium used was Kimmig's agar (K. A., E. Merck) supplemented with 0.5% glycerol. Plates containing serial dilutions (80 to 0.025 gg/imL) of the test products were inoculated with 10 μL of the fungal inocula, containing 10^5 colony forming units (cfu)/mL. Plates were incubated at 25° C. during 48 h for Candida sp. and during 5 days for Apergillus fumigatus. Following incubation MICs (minimal inhibitory concentrations) were determined.

C. krusei = experiment: In vitro activity by the agar dilution method, C. krusei; type: cell-based; conditions: Pichia kudriavzevii; Kimmig's agar, 25° C., 48 h; read-out: MIC (minimal inhibitory concentration), C. krusei
Method: as §1

Aspergillus fumigatus = experiment: In vitro activity by the agar dilution method, Aspergillus fumigatus; type: cell-based; conditions: 120 h, Kimmig's agar, 25° C., 5 days, read-out: MIC (minimal inhibitory concentration), Asp. fumigatus
Method: as §1

Candida albicans = experiment: In Vivo Activity (Systemic Candidiasis); conditions: po, 576 h, male mice, i.v. infection, read-out: protection on the day where all the animals in the control group had died; for responders at 1 mg/kg: orally at 1 mg/kg at 1, 4 and 24 h after infection; for responders at 10 mg/kg: orally at 10 mg/kg (asterisk) at 1, 4 and 24 h after infection
Method: Groups of 10 male mice were inoculated i.v. with 0.2 mL of a suspension containing (2-8)×10^7 cfu/mL of Candida albicans. Compounds were administered orally at 1 mg/kg (or at 10 mg/kg for those compounds marked with an asterisk) at times 1, 4 and 24 h after infection.

systemic aspergillosis = experiment: In Vivo Activity (Systemic Aspergillosis); parameters: species or system mice; conditions: p.o. 20 mg/kg/day, 5 days; control mortality on day 25 was 90%

SMILES	MIC (C. albicans) [µg/mL]	MIC (C. krusei) [µg/mL]	MIC (Aspergillus fumigatus) [µg/mL]	responders at 1 mg/kg (Candida albicans) [%]	protection on day 25 postinfection (systemic aspergillosis)	responders at 10 mg/kg (Candida albicans) [%]
C[C@@H](n1cnc2cc(-c3ccc(C#N)cc3)sc2c1=O)[C@](O)(Cn1cncn1)c1ccc(F)cc1F [Example 32, (1R,2R)-4-[3-[2-(2,4-Difluorophenyl)-2-hydroxy-1-methyl-3-(1H-1,2,4-triazol-1-yl)propyl]-4-oxo-3,4-dihydrothieno[3,2-d]pyrimidin-6-yl]benzonitrile]				100	60-100%	
C[C@@H](n1cnc2cc(OCC(F)(F)F)ccc2c1=O)[C@](O)(Cn1cncn1)c1ccc(F)cc1F [Example 20, (1R,2R)-3-[2-(2,4-Difluorophenyl)-2-hydroxy-1-methyl-3-(1H-1,2,4-triazol-1-yl)propyl]-7-(2,2,2-trifluoroethoxy)quinazolin-4(3H)-one]	0.31 (≈ 0.626 µM)	1.25 (≈ 2.52 µM)	10 (≈ 20.2 µM)	100		
C[C@@H](n1cnc2cc(C#N)ccc2c1=O)[C@](O)(Cn1cncn1)c1ccc(F)cc1F [Example 2, (1R,2R)-7-Cyano-3-[2-(2,4-difluorophenyl)-2-hydroxy-1-methyl-3-(1H-1,2,4-triazol-1-yl)propyl]quinazolin-4(3H)-one]	≤ 0.03	1.25 (≈ 2.96 µM)	1.25 (≈ 2.96 µM)		60-100%	
C[C@@H](n1cnc2cc(Br)ccc2c1=O)[C@](O)(Cn1cncn1)c1ccc(F)cc1F [Example 73, (1R,2R)-7-Bromo-3-[2-(2,4-difluorophenyl)-2-hydroxy-1-methyl-3-(1H-1,2,4-triazol-1-yl)propyl]quinazolin-4(3H)-one]	≤ 0.03	0.31 (≈ 0.651 µM)	0.31 (≈ 0.651 µM)		60-100%	100
CONC(=N)c1ccc(-c2cc3ncn([C@H](C)[C@](O)(Cn4cncn4)c4ccc(F)cc4F)c(=O)c3s2)cc1 [Example 67, (1R,2R)-3-[2-(2,4-Difluorophenyl)-2-hydroxy-1-methyl-3-(1H-1,2,4-triazol-1-yl)propyl]-6-[4-[imino(methoxyamino)methyl]phenyl]thieno[3,2-d]pyrimidin-4(3H)-one]	0.31 (≈ 0.562 µM)	0.63 (≈ 1.14 µM)	1.25 (≈ 2.27 µM)	100		
C[C@@H](n1cnc2cc(Cl)ccc2c1=O)[C@](O)(Cn1cncn1)c1ccc(F)cc1F [Example 1, (1R,2R)-7-Chloro-3-[2-(2,4-difluorophenyl)-2-hydroxy-1-methyl-3-(1H-1,2,4-triazol-1-yl)propyl]quinazolin-4(3H)-one]	≤ 0.03	0.63 (≈ 1.46 µM)	0.31 (≈ 0.718 µM)		60-100%	100
C[C@@H](n1cnc2cc(Br)c(F)cc2c1=O)[C@](O)(Cn1cncn1)c1ccc(F)cc1F [Example 75, (1R,2R)-7-Bromo-3-[2-(2,4-difluorophenyl)-2-hydroxy-1-methyl-3-(1H-1,2,4-triazol-1-yl)propyl]-6-fluoroquinazolin-4(3H)-one]	0.15 (≈ 0.303 µM)	1.25 (≈ 2.53 µM)	2.5 (≈ 5.06 µM)	100		

The next lines start with results.

MIC (C. albicans) [µg/mL]	MIC (C. krusei) [µg/mL]	MIC (Aspergillus fumigatus) [µg/mL]	SMILES	responders at 1 mg/kg (Candida albicans) [%]	protection on day 25 postinfection (systemic aspergillosis)	responders at 10 mg/kg (Candida albicans) [%]
≤ 0.03	0.31 (≈ 0.699 µM)	2.5 (≈ 5.64 µM)	CSc1ccc2c(=O)n([C@H](C)[C@](O)(Cn3cncn3)c3ccc(F)cc3F)cnc2c1 [Example 50, (1R,2R)-3-[2-(2,4-Difluorophenyl)-2-hydroxy-1-methyl-3-(1H-1,2,4-triazol-1-yl)propyl]-7-(methylthio)quinazolin-4(3H)-one]	100		
≤ 0.03	0.63 (≈ 1.19 µM)	20 (≈ 37.9 µM)	C[C@@H](n1cnc2cc(OCC(F)(F)C(F)F)ccc2c1=O)[C@](O)(Cn1cncn1)c1ccc(F)cc1F [Example 17, (1R,2R)-3-[2-(2,4-Difluorophenyl)-2-hydroxy-1-methyl-3-(1H-1,2,4-triazol-1-yl)propyl]-7-(2,2,3,3-tetrafluoropropoxy)quinazolin-4(3H)-one]	100		
≤ 0.03	0.15 (≈ 0.302 µM)	1.25 (≈ 2.51 µM)	C[C@@H](n1cnc2cc(-c3ccc(F)cc3)sc2c1=O)[C@](O)(Cn1cncn1)c1ccc(F)cc1F [Example 76, (1R,2R)-3-[2-(2,4-Difluorophenyl)-2-hydroxy-1-methyl-3-(1-H-1,2,4-triazol-1-yl)propyl]-6(4-fluorophenyl)thieno[3,2-d]pyrimidin-4(3H)-one]	100		
≤ 0.03	0.31 (≈ 0.592 µM)	0.31 (≈ 0.592 µM)	C[C@@H](n1cnc2cc(I)ccc2c1=O)[C@](O)(Cn1cncn1)c1ccc(F)cc1F [Example 74, (1R,2R)-3-[2-(2,4-Difluorophenyl)-2-hydroxy-1-methyl-3-(1-H-1,2,4-triazol-1-yl)propyl]-7-iodoquinazolin-4(3H)-one]	100		
≤ 0.03	0.15 (≈ 0.286 µM)	1.25 (≈ 2.39 µM)	C[C@@H](n1cnc2cc(Oc3ccc(Cl)cc3)ccc2c1=O)[C@](O)(Cn1cncn1)c1ccc(F)cc1F [Example 39, (1R,2R)-7-(4-Chlorophenoxy)-3-[2-(2,4-difluorophenyl)-2-hydroxy-1-methyl-3-(1H-1,2,4-triazol-1-yl)propyl]quinazolin-4(3H)-one]	100		
≤ 0.03	0.63 (≈ 1.35 µM)	2.5 (≈ 5.37 µM)	C[C@@H](n1cnc2cc(C(F)(F)F)ccc2c1=O)[C@](O)(Cn1cncn1)c1ccc(F)cc1F [Example 16, (1R,2R)-3-[2-(2,4-Difluorophenyl)-2-hydroxy-1-methyl-3-(1H-1,2,4-triazol-1-yl)propyl]-7-trifluoromethylquinazolin-4(3H)-one]	100	60-100%	
≤ 0.03	0.07 (≈ 0.136 µM)	2.5 (≈ 4.86 µM)	C[C@@H](n1cnc2cc(-c3ccc(Cl)cc3)sc2c1=O)[C@](O)(Cn1cncn1)c1ccc(F)cc1F [Example 31, (1R,2R)-6-(4-Chlorophenyl)-3-[2-(2,4-difluorophenyl)-2-hydroxy-1-methyl-3-(1H-1,2,4-triazol-1-yl)propyl]thieno[3,2-d]pyrimidin-4(3H)-one]	100	60-100%	
≤ 0.03	2.5 (≈ 5.79 µM)	40 (≈ 92.6 µM)	C[C@@H](n1cnc2ccc(Cl)cc2c1=O)[C@](O)(Cn1cncn1)c1ccc(F)cc1F [Example 7, (1R,2R)-6-Chloro-3-[2-(2,4-difluorophenyl)-2-hydroxy-1-methyl-3-(1H-1,2,4-triazol-1-yl)propyl]quinazolin-4(3H)-one]	100		
